# Results: patent publication US8252807B2, “Methods of inhibiting the interaction between S100 and the receptor for advanced glycation end-products” (Board of Regents, The University of Texas System, priority 2007, dated 2012)
# Columns and labels:
# BxPC-3 cells = assay: BxPC-3 cell growth (MTS); assay type: cell-based; settings: 48 hours; for BxPC-3 basal cell proliferation, mean: 0 μM mean=1.2
# Method: BxPC-3 cells were plated at 1.0×10^3 cells/well and treated with 0 μM, 1 μM, 10 μM, and 100 μM of cromolyn, and cell proliferation was analyzed after 48 hours. Means and 95% confidence intervals of three independent experiments performed in triplicate are shown. *, P=0.002; †, P<0.001 versus control. Growth of Panc-1 and BxPC3 pancreatic adenocarcinoma cells was analyzed using MTS reagent (Promega, Madison, Wis.) according to the manufacturer's directions. Purified S100P (100 nM final concentration) with or without cromolyn (100 μM final concentration) was added to Panc-1 cells. Only cromolyn (0-100 μM) was added to BxPC-3 cells, which express endogenous S100P. For both cell models, 1.0×10^3 cells/well were plated in 96-well culture dishes. Cells were treated with S100P, PDGF, or cromolyn, or a combination, followed immediately by treatment with either S100P or PDGF. MTS (20 μL per well) was added to cells at various times, and the mixture was incubated for 1 hour at 37° C. Samples were then read at 490 nm (as O.D. units) on a uQuant-Microplate Spectrophotometer (Bio-Tek Services Inc., Richmond, Va.). The assay was performed three times in triplicate.
# MPan-96 cells = assay: MPanc-96 cell invasiveness; assay type: cell-based, human
# [1] = test system: NFκB promoter activity in Panc-1 cells; assay: Luciferase assay for NFκB activity, Panc-1; assay type: cell-based
# Method: FIGS. 3A, 3B, and 3C show the effect of cromolyn on S100P stimulated NFκB promoter activity in pancreatic cancer cells in vitro and in vivo. Panc-1 and BxPC-3 pancreatic cancer cell lines stably expressing an NFκB luciferase reporter were examined for the effects of S100P and cromolyn. […] Means and 95% confidence intervals are shown for three independent experiments performed in triplicate. *, P=0.022, †, P<0.001, and ‡, P<0.001 versus control; #, P=0.005 versus 100 nM S100P alone. […] Means and 95% confidence intervals are shown for three independent experiments performed in triplicate. *, P=0.003, †, P<0.001 versus control. […] After 1 week, tumor growth was assessed and NFκB activity was analyzed using an IVIS system (Xenogen Corp., Alameda, Calif.) after injecting mice with D-luciferin (150 mg per kg body weight) (0 time point). The mice were treated with cromolyn (5 mg per kg body weight by intraperitoneal injection), and NFκB luciferase activity was analyzed again at 24 and 48 hours. *, P=0.005 versus control. Means and 95% confidence intervals are shown for two independent experiments (n=4 mice per group). Two-tailed two-sample (unpaired for in vitro and paired for in vivo studies) Student's t-tests were used to determine P values.
# To study pancreatic cancer cell NFκB activity, a lentivirus NFκB luciferase reporter gene construct was developed. The NFκB luciferase reporter gene was excised and isolated from the pNF-κB-Luc Vector (Clonetec, Mountain View, Calif.) and cloned into the lentiviral vector FG9 (Gift from Dr. Xiao-Feng Qin, Dept. of Immunology, M.D. Anderson Cancer Center replacing the CMV/LTR and UBiC promoters, to form Lenti-NFκB-Luc. Lentiviral NFκB vector were co-transfected with packaging constructs pRSVREV, pMDLg/pRRE, and the VSV-G expression plasmid pHCMVG, and lentivirus was produced in 293T cells by the calcium transfection method, as previously described in Qin, et al., Inhibiting HIV-1 infection in human T cells by lentiviral-mediated delivery of small interfering RNA against CCR5; Proc. Natl. Acad. Sci. U.S.A. 2003 Jan. 7; 100(1):183-8. […] Functional validation of NFκB reporter activity was conducted in vitro using TNF-α (20 ng/mL, Sigma, St. Louis, Mo.) as a positive control.
# BxPC-3 and Panc-1 cells stably expressing a Lenti-NFkB-luc reporter construct were treated with S100P, cromolyn, or the combination for 5 hours. D-luciferin (150 μg/mL) was added to the cells, and luciferase activity was measured using an IVIS bioluminescence system (Xenogen Co. Alameda, Calif.). Each experiment was conducted three times in triplicate.
# S100P binding with RAGE = target: T1, S100P binding with RAGE (Homo sapiens, UniProt P25815); assay: S100P binding with RAGE ELISA (sRAGE coated plate)
# T1 construct: full-length human S100P cDNA (NM_005980) was cloned into the pTrcHis2 vector; His tag
# T1 sequence (P25815 1-95): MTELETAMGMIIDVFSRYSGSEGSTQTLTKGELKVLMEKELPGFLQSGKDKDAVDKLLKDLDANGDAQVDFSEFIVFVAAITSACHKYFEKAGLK
# Method: After removing un-bound S100P by washing with detergent, the bound S100P and RAGE complex was quantified by adding HRP labeled antibody against S100P. *, P=0.04 C5 μM versus cromolyn 5 μM. Two-tailed two-sample (unpaired) Student's t-tests were used to determine P values.
# MPanc-96 cells = assay: MPanc-96 cell apoptosis by flow cytometry, 72 hours; assay type: cell-based, human; settings: 100 and 1000 nM, with or without gemcitabine 10 μM
# Method: FIG. 11 compares the effects of cromolyn and C5 alone and in combination with gemcitabine on MPanc-96 cell apoptosis. MPanc-96 cells were treated with cromolyn or C5 (100 and 1000 nM) with (+) or without (−) gemcitabine (10 μM). Apoptosis was analyzed after 72 hours by flow cytometry.
# PC3 prostate cells = assay: PC3 prostate cell viability with taxol; assay type: cell-based; settings: taxol 100 nM, cromolyn 10 μM, 48 hours
# Method: PC3 prostate cells were plated and treated with taxol (100 nM) either in the presence or absence of cromolyn (10 μM) for 48 hours. Cell viability was analyzed after 48 hours. *, P<0.05.
# [2] = background statement; cited from earlier work
structure (smiles),measurement,setting,value
"O=C(O)c1cc(=O)c2c(OCC(O)COc3cccc4oc(C(=O)O)cc(=O)c34)cccc2o1 [cromolyn, disodium 1,3-bis[(2′-carboxylatochromon-5′-yl)oxy]-2-hydroxypropane]","BxPC-3 cell proliferation, difference versus 0 μM",BxPC-3 cells; cromolyn 10 μM,0.5 MTS units
same,"BxPC-3 basal cell proliferation, mean",BxPC-3 cells; cromolyn 10 μM,0.7 MTS units
same,"BxPC-3 cell proliferation, difference versus 0 μM",BxPC-3 cells; cromolyn 100 μM,0.6 MTS units
same,"BxPC-3 basal cell proliferation, mean",BxPC-3 cells; cromolyn 100 μM,0.6 MTS units
same,MPanc-96 basal cell invasiveness,MPan-96 cells,inhibited basal cell invasiveness
same,"NFκB promoter activity in Panc-1 cells, mean","[1]; S100P 100 nM + cromolyn 100 μM, 5 hours, S100P alone mean=14460",7360 photons/sec
same,"NFκB promoter activity in Panc-1 cells, difference S100P alone versus combination with cromolyn","[1]; S100P 100 nM, cromolyn 100 μM",7100 photons/sec
same,basal NFκB activity in Panc-1 cells,"[1]; cromolyn 100 μM, no S100P, 5 hours",no effect
same,concentration achieving the same level of S100P inhibition,S100P binding with RAGE,5 µM
same,interaction between S100P with RAGE,S100P binding with RAGE,blocked
same,MPanc-96 cell viability,MPanc-96 cells,inhibit MPanc-96 cell viability
same,cell killing effect of taxol on prostate cancer cells,PC3 prostate cells,increased the cell killing effect of taxol
same,permeability to cells,[2],impermeant to cells
